Assay [1] concerns CIGR1 gene and CIGR2 gene. Briefly: Effect of inhibitors on induction of CIGR1 and CIGR2 genes by chitin heptamer in cultured rice cells. It is filed as cell-based. Particulars: inhibitor added ten minutes before; okadaic acid 1 μM, lavendustin A 30 μM, K-252a 20 μM. How it is done: (§1) FIG. 11 depicts photographs representing the effects of protein kinase inhibitors on elicitor response and gibberellin response. The following compounds were added ten minutes before the treatment with chitin heptamer (GN7) or gibberellin (GA3). (A): the positive control of the elicitor response; (B): okadaic acid (1 μM); (C), lavendustin A (30 μM); (D), K-252a (20 μM).
(§2) In addition, the effects of various inhibitors on the inductions by gibberellin and elicitors of CIGR1 gene and CIGR2 gene in the cultured rice cells were examined. Referring to the results of Kuo et al., cells pretreated with okadaic acid were tested. […] From these observations, protein phosphatase was presumed to be involved in signal transduction from gibberellin to CIGR1 gene and CIGR2 gene in cultured rice cells. Following these experiments, the effects of protein kinase inhibitors were studied.

Assay [2] concerns CIGR1 gene and CIGR2 gene. Briefly: Effect of inhibitors on induction of CIGR1 and CIGR2 genes by GA3 in cultured rice cells. Format: cell-based. The note with it: inhibitor added ten minutes before; okadaic acid 1 μM, lavendustin A 30 μM, K-252a 20 μM. The protocol:
as §1, §2

The test system of a further assay is α-amylase. The note with it: aleurone layer of wheat; listed as K252a; cited from earlier work.
The subject of assay [3] is elicitor-responsive genes. Particulars: pretreatment with K-252a; suspension-cultured rice cells; cited from earlier work.

As to `COC(=O)[C@@]1(O)C[C@H]2O[C@]1(C)n1c3ccccc3c3c4c(c5c6ccccc6n2c5c31)C(=O)NC4` [K-252-A], the “inhibition of induction of both genes by chitin heptamer” value in assay [1] is “almost completely”. Besides, in assay [2], the “inhibition of induction of both genes by GA3” value is “almost completely”. Also, the “inhibition of gibberellin induction of α-amylase” value in the assay on α-amylase was “hardly inhibited”. In addition, the “inhibition of induction of expression of elicitor-responsive genes” value in assay [3] is “strongly inhibited”.

These data come from patent US20050034189A1, “Chitin oligosaccharide elicitor- and gibberellin-responsive genes in plants, and uses thereof” (National Institute of Agrobiological Sciences, priority 2001, published 2005).
